Like-named read-outs stand apart in the source and are kept apart here.

This is an account of results in patent US20090227555A2, “Novel Pyridine Compounds” (priority 2005, published 2009).

The target of the test is T1, P2Y12 receptor (Homo sapiens, UniProt Q9H244).
T1 construct: expressed in transfected cells; host or cells: CHO cells (membrane preparation)
Kind of test: Functional inhibition of 2-Me-S-ADP induced P2Y12 signalling (35S-GTPγS, cell membranes from P2Y12 transfected CHO-cells). Format: biochemical. The text has this: Functional inhibition of—the P2Y12 receptor can be measured by in vitro assays using cell membranes from P2Y12 transfected CHO-cells. Inhibition of platelet aggregation as a result of P2Y12 antagonism is best measured by ADP-induced aggregation of washed human platelets, activation of the platelet fibrinogen receptor (GPIIb/IIIa), or aggregation in whole blood via residual platelet counting. Detailed methodology is indicated below.
Functional inhibition of 2-Me-S-ADP induced P2Y12 signalling: 5 μg of membranes were diluted in 200 μl of 200 mM NaCl, 1 mM MgCl2, 50 mM HEPES (pH 7.4), 0.01% BSA, 30 μg/ml saponin and 10 μM GDP. To this was added an EC80 concentration of agonist (2-methyl-thio-adenosine diphosphate), the required concentration of test compound and 0.1 μCi ^35S-GTPγS. The reaction was allowed to proceed at 30° C. for 45 min. Samples were then transferred on to GF/B filters using a cell harvester and washed with wash buffer (50 mM Tris (pH 7.4), 5 mM MgCl2, 50 mM NaCl). Filters were then covered with scintilant and counted for the amount of ^35S-GTPγS retained by the filter. Maximum activity was that determined in the presence of the agonist and minimum activity in the absence of the agonist following subtraction of the value determined for non-specific activity.

T1 sequence (Q9H244 whole entry): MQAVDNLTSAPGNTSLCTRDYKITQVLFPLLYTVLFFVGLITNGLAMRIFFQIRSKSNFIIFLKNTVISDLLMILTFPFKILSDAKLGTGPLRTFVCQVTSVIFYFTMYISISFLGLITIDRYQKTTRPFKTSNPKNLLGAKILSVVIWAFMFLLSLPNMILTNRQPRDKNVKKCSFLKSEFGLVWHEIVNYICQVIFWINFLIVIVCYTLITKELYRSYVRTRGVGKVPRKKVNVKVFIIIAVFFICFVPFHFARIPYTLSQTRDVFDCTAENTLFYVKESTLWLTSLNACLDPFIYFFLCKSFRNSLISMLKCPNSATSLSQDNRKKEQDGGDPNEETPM

For `CCOC(=O)c1cnc(N2CCN(C(=O)NS(=O)(=O)c3ccccc3)CC2)c(Cl)c1` [Example 10, Ethyl 5-chloro-6-(4-{[(phenylsulfonyl)amino]carbonyl}piperazin-1-yl)nicotinate], the IC50 (5 μg membranes, EC80 concentration of agonist 2-methyl-thio-adenosine diphosphate, 35S-GTPγS, 30° C., 45 min, read-out: IC50) was 610 nM.
The compound `CC(C)OC(=O)c1cnc(N2CCN(C(=O)NS(=O)(=O)c3ccc(Cl)s3)CC2)c(Cl)c1` [Example 18, Isopropyl 5-chloro-6-[4-({[(5-chloro-2-thienyl)sulfonyl]amino}carbonyl)piperazin-1-yl]nicotinate] gave an IC50 of 520 nM.
